From ChEMBL document CHEMBL4433245, “Discovery of GlyT2 Inhibitors Using Structure-Based Pharmacophore Screening and Selectivity Studies by FEP+ Calculations” (ACS Med Chem Lett, 2019)

Assays:
[1] = molecular target: Sodium- and chloride-dependent glycine transporter 1 (Mus musculus) (UniProt P28571); assay: Inhibition of mouse GlyT1 expressed in porcine aorta […] cells assessed as reduction in [3H]-Glycine uptake incubated for 10 mins at pH 7.4 by scintillation spectroscopy relative to untreated control
Chain of Sodium- and chloride-dependent glycine transporter 1 (Mus musculus) (P28571 whole entry, looked up): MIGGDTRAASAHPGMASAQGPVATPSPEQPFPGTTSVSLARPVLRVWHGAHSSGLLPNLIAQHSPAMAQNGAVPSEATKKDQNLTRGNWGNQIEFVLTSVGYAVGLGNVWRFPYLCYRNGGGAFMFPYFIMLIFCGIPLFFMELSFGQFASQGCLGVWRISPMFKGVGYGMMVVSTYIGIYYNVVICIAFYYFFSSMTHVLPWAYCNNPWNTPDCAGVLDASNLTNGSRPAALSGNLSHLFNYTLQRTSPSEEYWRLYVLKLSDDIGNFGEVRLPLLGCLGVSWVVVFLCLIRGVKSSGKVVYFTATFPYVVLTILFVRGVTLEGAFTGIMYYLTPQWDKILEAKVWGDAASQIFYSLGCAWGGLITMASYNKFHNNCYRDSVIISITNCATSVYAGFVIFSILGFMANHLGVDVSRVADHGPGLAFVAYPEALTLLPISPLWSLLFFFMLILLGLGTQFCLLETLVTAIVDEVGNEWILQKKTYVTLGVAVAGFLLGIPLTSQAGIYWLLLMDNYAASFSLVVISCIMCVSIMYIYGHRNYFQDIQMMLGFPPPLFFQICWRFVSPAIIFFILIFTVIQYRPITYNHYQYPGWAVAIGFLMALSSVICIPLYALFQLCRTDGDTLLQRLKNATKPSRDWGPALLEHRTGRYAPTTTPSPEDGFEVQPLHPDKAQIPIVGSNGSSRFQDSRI

[2] = molecular target: Sodium- and chloride-dependent glycine transporter 1 (Mus musculus) (UniProt P28571); assay: Inhibition of mouse GlyT1 expressed in porcine aorta […] cells assessed as reduction in [3H]-Glycine uptake incubated for 10 mins at pH 7.4 by scintillation spectroscopy

SMILES	inhibition [1]	IC50 [2]
CN(CC[C@@H](Oc1ccc(-c2ccccc2)cc1)c1ccc(F)cc1)CC(=O)O	80%	
O=c1[nH]c2c(c(=O)[nH]1)CCN(Cc1ccccc1)C2		> 200 µM
O=C(O)CCCCSc1ncnc2[nH]c(=O)[nH]c12		> 200 µM
O=C(O)CCSc1[nH]c(=O)nc2[nH]c(=O)[nH]c12		> 200 µM
